Experimental data published in patent US6949655B2, “Acyclic piperidine derivatives” (priority 2001, dated 2005).

Tested on: rat embryo ventral mesencephalic cells
Assay: Neuroprotection assay (NMDA-induced neuroexcitotoxic injury, 3H-dopamine uptake)
Assay type: cell-based, Sprague-Dawley rat
Settings: VM cell culture, NMDA 100-400 μM for 20 hours, high affinity 3H-dopamine uptake
From the text: The neuroprotective activity of the compounds of this invention may be assayed using rat embryo ventral mesencephalic cells in culture which are subsequently exposed to the glutamate receptor agonist NMDA. This assay is described in detail in the example section.
The ventral mesencephalic region was dissected out of embryonic day 15 Sprague-Dawley rat embryos (Harlan), dissociated into single cell suspension by a combination of trypsinization and trituration (Costantini et al., Neurobiol Dis., pp. 97-106 (1998). Dissociated VM cells were plated into poly-L-ornithine-coated 96-well plates at a density of 85,000 cells/well in 100 uL of DMEM supplemented with 18% heat-inactivated horse serum, 0.24% glucose, 2 mM glutamine and 50 u/ml pernicillin/streptomycin and incubated in a 5% CO2 incubator. After one day in culture (DIV1), the medium was replaced with 100 μL of a defined medium (DMEM supplemented with 1×N2 cocktail (Gibco-BRL), 0.12% glucose, 2 mM glutamine, and 50 units/ml penicillin/streptomycin) containing DMSO or various concentrations of the compounds of this invention. On DIV5, neuroexcitotoxic injury was induced by the addition of various concentrations of the glutamate receptor agonist NMDA (100-400 μM). Cultures were incubated with the neurotoxin for 20 hours and the effects of neurophilin compounds were assessed using high affinity ^3H-dopamine uptake according to a procedure published by Park and Mytilineou [Brain Res., 599, pp. 83-97 (1992)].

SMILES	EC50
CN(C)CC(=O)N1CCC(Cc2ccccc2)CC1 [Compound 1]	> 500 nM
CCN(CC(=O)N1CCN(c2ccccc2)CC1)Cc1ccccc1 [Compound 2]	> 500 nM
C[C@H](c1ccccc1)N(C)CC(=O)N1CCN(c2ccccc2)CC1 [Compound 3]	> 500 nM
C[C@@H](c1ccccc1)N(C)CC(=O)N1CCN(c2ccccc2)CC1 [Compound 4]	> 500 nM
C[C@@H](C(=O)N1CCC(Cc2ccccc2)CC1)N(C)Cc1ccccc1 [Compound 5]	< 100 nM
CCN(CC(=O)N1CCC(Cc2ccccc2)CC1)Cc1ccccc1 [Compound 6]	100 to 500 nM
C[C@H](c1ccccc1)N(C)CC(=O)N1CCC(Cc2ccccc2)CC1 [Compound 7]	100 to 500 nM
C[C@@H](c1ccccc1)N(C)CC(=O)N1CCC(Cc2ccccc2)CC1 [Compound 8]	100 to 500 nM
C[C@@H](C(=O)N1CCN(c2ccc(F)cc2)CC1)N(C)Cc1ccccc1 [Compound 9, 2-(Benzyl-methylamino)-1-[4-(4-fluorophenyl)-piperazin-1-yl]-propan-1-one]	< 100 nM
CN(C)C1(C(=O)N2CCC(Cc3ccccc3)CC2)CCc2ccccc21 (centres unmarked) [Compound 10]	100 to 500 nM
C[C@@H](C(=O)N1CCC(Cc2ccc(F)cc2)CC1)N(C)Cc1ccccc1 [Compound 11, 2-(Benzyl-methylamino)-1-[4-(4-fluorobenzyl)-piperidin-1-yl]-propan-1-one]	< 100 nM
CN(C)CC(=O)N1CCN(C(c2ccc(F)cc2)c2ccc(F)cc2)CC1 [Compound 12]	> 500 nM
CCC(C)[C@@H](C(=O)N1CCC(Cc2ccccc2)CC1)N(C)Cc1ccccc1 (some centres unmarked) [Compound 13]	> 500 nM
O=C(CN(Cc1ccccc1)Cc1ccccc1)N1CCN(c2ccccc2)CC1 [Compound 14]	> 500 nM
O=C(CN(Cc1ccccc1)Cc1ccccc1)N1CCC(Cc2ccccc2)CC1 [Compound 15]	> 500 nM
CCN(CC(=O)N1CCN(C(c2ccc(F)cc2)c2ccc(F)cc2)CC1)Cc1ccccc1 [Compound 16]	> 500 nM
C[C@H](c1ccccc1)N(C)CC(=O)N1CCN(C(c2ccc(F)cc2)c2ccc(F)cc2)CC1 [Compound 17]	> 500 nM
C[C@@H](c1ccccc1)N(C)CC(=O)N1CCN(C(c2ccc(F)cc2)c2ccc(F)cc2)CC1 [Compound 18]	> 500 nM
C[C@@H](C(=O)N1CCN(C(c2ccc(F)cc2)c2ccc(F)cc2)CC1)N(C)Cc1ccccc1 [Compound 19, 2-(Benzyl-methylamino)-1-{4-[bis-4-(4-fluorophenyl)-methyl]-piperazin-1-yl]-propan-1-one]	100 to 500 nM
O=C(CN(Cc1ccccc1)Cc1ccccc1)N1CCN(C(c2ccc(F)cc2)c2ccc(F)cc2)CC1 [Compound 20]	> 500 nM
